According to patent publication US20220170028A1, “NOVEL INTERLEUKIN-2 VARIANTS AND BIFUNCTIONAL FUSION MOLECULES THEREOF” (Cugene Inc, priority 2019, published 2022):

Key:
[1] = test system: CD4+ Tconv cells, CD8 Teff and NK cells; experiment: Dose-response pharmacodynamics, CD4+ Tconv, CD8 and NK cells in mice (Example 10); type: in vivo, mouse; settings: single s.c. dose, Balb/C mice
Description: Following a single subcutaneous administration of vehicle (PBS) or P-0511 (1, 0.3, 0.1, or 0.03 mg/kg) to female Balb/C mice (n=5/group), peripheral blood was collected on day −2 as baseline, and post dose on days 3, 5, and 7. On day 7, mice were sacrificed, and spleens were harvested. Blood lymphocyte phenotyping, proliferation and expansion were measured by flow cytometry at each timepoint using fresh whole blood.

[2] = test system: KLH-induced DTH in Balb/C mice; experiment: KLH-induced delayed-type hypersensitivity (DTH) mouse model, ear thickness; type: in vivo; settings: for inhibition of ear inflammation (separate study): Q5D
Description: The ability of Treg cells induced by IL-2 variants to suppress T cell antigen-driven inflammation in vivo was assessed in a model of delayed-type hypersensitivity (DTH). Female Balb/C mice (7-week old) were acclimated in house for 7 days and randomized into groups. Subcutaneous administration of vehicle (PBS), P-0511 at either 0.1 mg/kg or 0.3 mg/kg was initiated on day −2 and was given either once every 3 days (Q3D) for three injections or once every 5 days (Q5D) for two injections. Mice were then sensitized with a subcutaneous administration of 100 μg keyhole limpet hemocyanin (KLH) in 200 μl saline on day 0. For Q3D dosing, two more subcutaneous injections of PBS or P-0511 (0.1 or 0.3 mg/kg) were administered on days 1, and 4; for Q5D dosing, one additional s.c. injection of PBS, 0.1 or 0.3 mg/kg P-0511 was administered on day 3. Mice received an intradermal challenge of KLH (5 μg in 10 μl saline) in right ear on day 5. Right ear thickness was measured using a caliper on day 5 prior KLH challenge and daily from day 6 to day 9 corresponding to 24 h, 48 h, 72 h and 96 h post KLH challenge. One group of mice also received 5 mg/kg daily i.p. treatment of dexamethasone from day 5 to day 8 as a positive control.
Kinetics of the DTH response using the change in ear thickness relative to baseline values (Δ ear thickness) at various times after KLH challenge was illustrated in FIG. 23.

[3] = test system: CD4+ Treg vs CD4+ Tconv cells; experiment: STAT5 phosphorylation, selectivity / activity profile Treg versus CD4+ Tconv cells, human PBMC; type: cell-based
Outline: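 Fresh human PBMC from a healthy donor, serum-starved 1 h at 4 °C, then exposed to serial dilutions of IL-2 variants for 30 min at 37 °C. After fixation/permeabilization, cells stained for CD4, CD25, FOXP3 and pSTAT5 and analysed by flow cytometry. Treg (CD4+/Foxp3+/CD25high) and Tconv (CD4+/Foxp3−/CD25low) gated; read-out is percent pSTAT5-positive cells.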

[4] = test system: STAT5 phosphorylation in CD4+ Treg cells; experiment: STAT5 phosphorylation in CD4+ Treg cells, human PBMC assay by FACS; type: cell-based
Outline: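 Donor PBMCs were starved in serum-free buffer at 4° C for 1 h, then 2×10^5 cells were exposed to serial dilutions of IL-2 variants for 30 min at 37° C. After fixation and permeabilization they were stained for CD4, CD25, FOXP3 and pSTAT5. Read-out is percent pSTAT5+ cells among CD4+/Foxp3+/CD25^high (Treg) or CD4+/Foxp3−/CD25^low (Tconv) cells by flow cytometry.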

Treg cells = experiment: Treg pharmacodynamics in mice after repeated administration Q3D (Example 11); type: in vivo, mouse; settings: 0.3 mg/kg s.c.
Description: Female Balb/C mice (7-week old) were acclimated in house for 5-7 days before the study. Vehicle (PBS), 0.3 mg/kg of P-0511, P-0512, P-0531, or Benchmark-1 compound were subcutaneously administered to mice (n=5/group) on days 0, 3, and 6. On days 3 and 9, three days after the first injection and multiple (3) injections, respectively, peripheral blood was collected. Based on earlier in vivo experiments, Treg cell activation, proliferation, and expansion were expected to peak on day 3, and thus three days post injection was selected for data collection and analysis. Changes in blood lymphocyte activation, proliferation, and expansion were measured by flow cytometry. P-0531 is the S125I equivalent of the wild type IL-2 fusion protein. The Benchmark-1 contains V91K mutation.

NK cells = experiment: NK cell proliferation, CFSE dilution, human PBMC; type: cell-based; settings: 5 or 7 days incubation
Description: Further, P-0511 and P-0512 were tested for their ability to stimulate NK and CD8+ T cells proliferation in comparison with the wild type and benchmark molecules. Intracellular fluorescent label carboxyfluorescein diacetate succinimidyl ester (CFSE) method was utilized. Briefly, human PBMC (1×10^5 cells/well) were labeled with CFSE, plated onto 96-well plates, and incubated with increasing concentrations of different IL-2 compounds. Cells were then harvested after 5 or 7 days of incubation and stained with either anti-CD56-APC antibody for NK cells or anti-CD8-APC antibody for CD8+ T cells; and analyzed by flow cytometry. Data are expressed as a percent of divided cells and illustrated in FIG. 10A for CD8+ T cell proliferation and FIG. 10B for NK cell proliferation.

P-0511: IL-2 L19H/S125I/Q126E Fc fusion, SEQ ID NO: 213
percentages of CD4+ Tconv, CD8 Teff and NK cells over the total lymphocytes [1]: no statistically significant changes
suppression of DTH ear swelling ([2]; 0.1 mg/kg s.c., Q3D and Q5D): did not reach statistical significance at most of the time points
inhibition of ear inflammation (separate study) ([2]; 0.1 mg/kg): mild
inhibition of ear inflammation (separate study) ([2]; 0.3 mg/kg): Intermediate
inhibition of ear inflammation (separate study) ([2]; 1 mg/kg): strong resistance to KLH-induced DTH
activity profile / selectivity window Treg over CD4+ Tconv (in words) [3]: further widened the Treg selectivity window
Treg Selectivity ([3]; Isoleucine-125 constructs): Yes
potency in ex vivo cell assay relative to P-0560 [4]: over 100 fold
% Treg over total CD4 T cells or over total lymphocytes (Treg cells; after three consecutive Q3D treatments): sustained at significantly high levels
Treg cell counts, fold changes relative to PBS and Treg/Tconv ratio (Treg cells; repeated dosing Q3D): superior capabilities to sustain Treg pool and maintain Treg selectivity
potency in stimulating NK cell proliferation (in words) (NK cells): on par with Benchmark-3
